Positions of bridges follow the written chain, without caps; N, C: chain ends. Residues, ends and D or L forms follow the SMILES beside them. No end group written: not given here.
Key:
[1] = tested on: serum calcium concentration
Method: Biological Assay Of Calcitonin Analogs In Vivo
Rats were divided into four groups of seven animals, and each group was assigned at random to a dose of standard or test solution. Low and high doses were chosen from the linear portion of the dose-response curve. For the salmon calcitonin standard, the values were 0.7 and 2.1 ng. peptide/100 g. body weight (BW). This dose approximates 3 and 9 MU/100 g. […] Peptides were given by subcutaneous injection (0.2 ml/100 g. BW) and blood was withdrawn 1 hour later for serum calcium determination. Sera are processed and analyzed within two hours of collection. Results were analyzed within two hours of collection.

[2] = literature values, Monikawa et al.; cited from earlier work

For CC(C)C[C@H](NC(=O)CNC(=O)[C@@H]1CSSC[C@H](N)C(=O)N[C@@H](CO)C(=O)N[C@@H](CC(N)=O)C(=O)N[C@@H](CC(C)C)C(=O)N[C@@H](CO)C(=O)N[C@@H]([C@@H](C)O)C(=O)N1)C(=O)NCC(=O)N[C@@H](CCCCN)C(=O)N[C@@H](CC(C)C)C(=O)N[C@@H](CO)C(=O)N[C@@H](CCC(N)=O)C(=O)N[C@@H](CCC(=O)O)C(=O)N[C@@H](CC(C)C)C(=O)N[C@@H](Cc1c[nH]cn1)C(=O)N[C@@H](CCCCN)C(=O)N[C@@H](CCC(N)=O)C(=O)N[C@H](C(=O)N[C@@H](Cc1ccc(O)cc1)C(=O)N1CCC[C@H]1C(=O)N[C@@H](CCCNC(=N)N)C(=O)N[C@H](C(=O)N[C@@H](CC(N)=O)C(=O)N[C@H](C(=O)NCC(=O)N[C@@H](CO)C(=O)NCC(=O)N[C@H](C(=O)N1CCC[C@H]1C(N)=O)[C@@H](C)O)[C@@H](C)O)[C@@H](C)O)[C@@H](C)O [Gly^8, des-Leu^19 -SCT, 8-glycine, des-19-leucine-salmon calcitonin] (H-CSNLSTCGLGKLSQELHKQTYPRTNTGSGTP-NH2; disulfide 1-7), the biological potency ([1]; rat, in vivo, sc) was 11,400 IU/mg.

With CC(C)C[C@H](NC(=O)[C@H](CCCCN)NC(=O)CNC(=O)[C@H](CC(C)C)NC(=O)[C@@H](NC(=O)[C@@H]1CSSC[C@H](N)C(=O)N[C@@H](CO)C(=O)N[C@@H](CC(N)=O)C(=O)N[C@@H](CC(C)C)C(=O)N[C@@H](CO)C(=O)N[C@@H]([C@@H](C)O)C(=O)N1)C(C)C)C(=O)N[C@@H](CO)C(=O)N[C@@H](CCC(N)=O)C(=O)N[C@@H](CCC(=O)O)C(=O)N[C@@H](CC(C)C)C(=O)N[C@@H](Cc1c[nH]cn1)C(=O)N[C@@H](CCCCN)C(=O)N[C@@H](CC(C)C)C(=O)N[C@@H](CCC(N)=O)C(=O)N[C@H](C(=O)N[C@@H](Cc1ccc(O)cc1)C(=O)N1CCC[C@H]1C(=O)N[C@@H](CCCNC(=N)N)C(=O)N[C@H](C(=O)N[C@@H](CC(N)=O)C(=O)N[C@H](C(=O)NCC(=O)N[C@@H](CO)C(=O)NCC(=O)N[C@H](C(=O)N1CCC[C@H]1C(N)=O)[C@@H](C)O)[C@@H](C)O)[C@@H](C)O)[C@@H](C)O [salmon calcitonin, Salmon calcitonin] the “potency of the standard salmon calcitonin used” value ([1]; independently determined content of the standard) was “greater than 4,000 IU/mg”.

In the case of “eel calcitonin (CSNLSTCVLGKLSQELHKLQTYPRTDVGAGTP; ends and bridges not checked; cysteine pairing not given here; UniProt P01262 1-32, looked up) [synthetic eel calcitonin, natural 32-amino-acid calcitonin peptide]”, the hypocalcemic potency [2] is listed as “around 4300 IU/mg”.
